# Test results taken from US8455525B2, “Selective androgen receptor modulators” (Radius Health, Inc., priority 2008, dated 2013).
# pIC50: −log10 of the molar value.
# Biological target: T1, androgen receptor (AR) (Rattus norvegicus, UniProt P15207)
# T1 construct: purchased Invitrogen, Madison, Wis
# T1 sequence (P15207 651-902 limits assumed): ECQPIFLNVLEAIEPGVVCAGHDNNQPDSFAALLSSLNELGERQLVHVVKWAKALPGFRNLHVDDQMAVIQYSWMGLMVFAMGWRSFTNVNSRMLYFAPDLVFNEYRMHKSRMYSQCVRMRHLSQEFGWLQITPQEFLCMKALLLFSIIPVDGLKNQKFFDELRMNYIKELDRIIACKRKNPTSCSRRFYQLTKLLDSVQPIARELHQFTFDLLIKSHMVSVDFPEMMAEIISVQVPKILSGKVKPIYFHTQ
# Test: androgen receptor binding assay (fluorescence polarization, Fluormone AL Green competition)
# Procedure: The assay was performed as specified by the manufacturer (Invitrogen, Madison, Wis.). Briefly, 1 μl of 10 mM compound was added to 500 μl of AR screening buffer in a 1.5 ml eppendorf tube to make a 2×10^−5M stock. 10-fold serial dilutions of the test compounds were prepared ranging in concentration from 10^−5M to 10^−12M. Each dilution was added in triplicate to a black 384-microtiter plate. The test compounds will be diluted 2-fold in the final reaction. 2×AR-Fluormone™ complex was prepared with 2 nM Flourmone AL Green™ and 30 nM AR. 25 μl of 2× complex was aliquoted to each reaction well, such that the final reaction volume was 50 μl per well. Plate was sealed with a foil cover and incubated in the dark at room temperature for 4 h. Polarization values for each well were measured. The polarization values were plotted against the concentration of the test compound. […] As a control, a competition curve for R1881 (methyltrienolone) was performed for each assay. Curve Fitting was performed using GraphPad Prism® software from GraphPad™ Software Inc. Binding data are reported as a single determination if the experiment was run once only and as the average of experiments if the binding experiment was performed two or more times with that compound.
# Where multiple data points have been taken, the value reported is the average of the multiple determinations.
row,SMILES,pIC50
1,"Cc1c(N[C@@H](c2nnc(-c3ccc(F)cc3)s2)[C@@H](C)O)ccc(C#N)c1Cl [Example 28, 2-chloro-4-((1R,2R)-1-(5-(4-fluorophenyl)-1,3,4-thiadiazol-2-yl)-2-hydroxypropylamino)-3-methylbenzonitrile]",7.80
2,"C[C@@H](O)[C@@H](Nc1ccc(C#N)c(C(F)(F)F)c1)c1nnc(-c2ccc(S(C)(=O)=O)cc2)o1 [Example 59, 4-((1R,2R)-2-hydroxy-1-(5-(4-(methylsulfonyl)phenyl)-1,3,4-oxadiazol-2-yl)propylamino)-2-(trifluoromethyl)benzonitrile]",< 6.00
3,"Cc1c(N[C@@H](c2ncc(-c3ccccc3)o2)[C@H](C)O)ccc(C#N)c1Cl [Example 36, 2-Chloro-4-((1R,2S)-2-hydroxy-1-(5-phenyloxazol-2-yl)propylamino)-3-methylbenzonitrile]",7.92
4,"C[C@@H](O)[C@@H](Nc1ccc(C#N)c2sccc12)c1nnc(-c2ccc(F)cc2)o1 [Example 64, 4-((1R,2R)-1-(5-(4-fluorophenyl)-1,3,4-oxadiazol-2-yl)-2-hydroxypropylamino)benzo[b]thiophene-7-carbonitrile]",9.00
5,"C[C@@H](O)[C@@H](Nc1ccc(C#N)c2sccc12)c1nnc(-c2ccccc2)o1 [Example 65, 4-((1R,2R)-2-hydroxy-1-(5-phenyl-1,3,4-oxadiazol-2-yl)propylamino)benzo[b]thiophene-7-carbonitrile]",9.00
6,"Cc1c(NC(c2nnc(-c3ccccc3)o2)C(O)c2ccccc2)ccc(C#N)c1Cl (racemic) [Example 38, DL-Threo-2-chloro-4-(2-hydroxy-2-phenyl-1-(5-phenyl-1,3,4-oxadiazol-2-yl)ethylamino)-3-methylbenzonitrile]",7.22
7,"CCc1c(N[C@@H](c2nnc(-c3ccc(C#N)cc3)o2)[C@H](C)O)ccc(C#N)c1Cl [Example 47, 2-Chloro-4-((1R,2S)-1-(5-(4-cyanophenyl)-1,3,4-oxadiazol-2-yl)-2-hydroxypropylamino)-3-ethylbenzonitrile]",9.00
8,"CCc1c(N[C@@H](c2nnc(-c3ccc(C#N)cc3)o2)[C@@H](C)O)ccc(C#N)c1Cl [Example 54, 2-Chloro-4-((1R,2R)-1-(5-(4-cyanophenyl)-1,3,4-oxadiazol-2-yl)-2-hydroxypropylamino)-3-ethylbenzonitrile]",9.00
9,"Cc1c(N[C@@H](c2nnc(-c3ccc(-n4cccn4)cc3)o2)[C@H](C)O)ccc(C#N)c1Cl [Example 53, 4-((1R,2S)-1-(5-(4-(1H-Pyrazol-1-yl)phenyl)-1,3,4-oxadiazol-2-yl)-2-hydroxypropylamino)-2-chloro-3-methylbenzonitrile]",9.00
10,"C[C@H](O)[C@@H](Nc1ccc(C#N)c(C(F)(F)F)c1)c1nnc(-c2ccc(C#N)cc2)o1 [Example 45, 4-((1R,2S)-1-(5-(4-Cyanophenyl)-1,3,4-oxadiazol-2-yl)-2-hydroxypropylamino)-2-(trifluoromethyl)benzonitrile]",6.33
11,"Cc1c(N[C@@H](c2nnc(-c3ccc(F)c(O)c3)o2)[C@H](C)O)ccc(C#N)c1Cl [Example 40, 2-Chloro-4-((1R,2S)-1-(5-(4-fluoro-3-hydroxyphenyl)-1,3,4-oxadiazol-2-yl)-2-hydroxypropylamino)-3-methylbenzonitrile]",9.70
12,"CCc1c(N[C@@H](c2nnc(-c3ccccc3)o2)[C@H](C)O)ccc(C#N)c1Cl [Example 11, 2-chloro-3-ethyl-4-((1R,2S)-2-hydroxy-1-(5-phenyl-1,3,4-oxadiazol-2-yl)propylamino)benzonitrile]",7.92
13,"Cc1c(N[C@@H](c2nnc(-c3ccc(O)cc3)o2)[C@H](C)O)ccc(C#N)c1Cl [Example 8, 2-chloro-4-((1R,2S)-2-hydroxy-1-(5-(4-hydroxyphenyl)-1,3,4-oxadiazol-2-yl)propylamino)-3-methylbenzonitrile]",7.82
14,"Cc1c(N[C@@H](c2nnc(-c3ccc(CO)cc3)o2)[C@H](C)O)ccc(C#N)c1Cl [Example 49, 2-Chloro-4-((1R,2S)-2-hydroxy-1-(5-(4-(hydroxymethyl)phenyl)-1,3,4-oxadiazol-2-yl)propylamino)-3-methylbenzonitrile]",8.70
15,"Cc1c(N[C@@H](c2nnc(-c3ccc(Cl)c(Cl)c3)o2)[C@@H](C)O)ccc(C#N)c1Cl [Example 32, 2-Chloro-4-((1R,2R)-1-(5-(3,4-dichlorophenyl)-1,3,4-oxadiazol-2-yl)-2-hydroxypropylamino)-3-methylbenzonitrile]",8.70
16,"Cc1c(N[C@@H](c2nnc(-c3ccc(F)cc3)o2)[C@@H](C)O)ccc(C#N)c1Cl [Example 19, 2-chloro-4-((1R,2R)-1-(5-(4-fluorophenyl)-1,3,4-oxadiazol-2-yl)-2-hydroxypropylamino)-3-methylbenzonitrile]",7.72
17,"C[C@H](O)[C@@H](Nc1ccc(C#N)c(Cl)c1)c1nnc(-c2ccc(S(C)(=O)=O)cc2)o1 [Example 48, 2-Chloro-4-((1R,2S)-2-hydroxy-1-(5-(4-(methylsulfonyl)phenyl)-1,3,4-oxadiazol-2-yl)propylamino)benzonitrile]",< 6.00
18,"COc1ccc(-c2nnc([C@H](Nc3ccc(C#N)c(Cl)c3C)[C@H](C)O)o2)cc1 [Example 2, 2-chloro-4-((1R,2S)-2-hydroxy-1-(5-(4-methoxyphenyl)-1,3,4-oxadiazol-2-yl)propylamino)-3-methylbenzonitrile]",8.30
19,"Cc1c(N[C@@H](c2nc(-c3ccccc3)no2)[C@@H](C)O)ccc(C#N)c1Cl [Example 18, 2-chloro-4-((1R,2R)-2-hydroxy-1-(3-phenyl-1,2,4-oxadiazol-5-yl)propylamino)-3-methylbenzonitrile]",7.22
20,"C[C@@H](O)[C@@H](Nc1ccc(C#N)c(Cl)c1)c1nnc(-c2ccc(C#N)cc2)o1 [Example 46, 2-Chloro-4-((1R,2R)-1-(5-(4-cyanophenyl)-1,3,4-oxadiazol-2-yl)-2-hydroxypropylamino)-benzonitrile]",8.22
21,"C[C@H](O)[C@@H](Nc1ccc(C#N)c2sccc12)c1nnc(-c2ccccc2)o1 [Example 63, 4-((1R,2S)-2-hydroxy-1-(5-phenyl-1,3,4-oxadiazol-2-yl)propylamino)benzo[b]thiophene-7-carbonitrile]",9.00
22,"Cc1c(N[C@@H](c2nnc(-c3ccc(Cl)cc3)o2)C(C)(C)O)ccc(C#N)c1Cl [Example 15, (R)-2-chloro-4-(1-(5-(4-chlorophenyl)-1,3,4-oxadiazol-2-yl)-2-hydroxy-2-methylpropylamino)-3-methylbenzonitrile]",9.30
23,"Cc1c(N[C@@H](c2nnc(-c3ccc(S(C)(=O)=O)cc3)o2)[C@@H](C)O)ccc(C#N)c1Cl [Example 25, 2-chloro-4-((1R,2R)-2-hydroxy-1-(5-(4-(methylsulfonyl)phenyl)-1,3,4-oxadiazol-2-yl)propylamino)-3-methylbenzonitrile]",6.59
24,"Cc1c(N[C@@H](c2nnc(-c3ccc(C#N)cc3)o2)[C@H](C)O)ccc(C#N)c1C(F)(F)F [Example 42, 4-((1R,2S)-1-(5-(4-Cyanophenyl)-1,3,4-oxadiazol-2-yl)-2-hydroxypropylamino)-3-methyl-2-(trifluoromethyl)benzonitrile]",8.05
25,"Cc1c(N[C@@H](c2nnc(-c3ccccc3)s2)[C@@H](C)O)ccc(C#N)c1Cl [Example 26, 2-chloro-4-((1R,2R)-2-hydroxy-1-(5-phenyl-1,3,4-thiadiazol-2-yl)propylamino)-3-methylbenzonitrile]",8.00
26,"C[C@H](O)[C@@H](Nc1ccc(C#N)c(Cl)c1Cl)c1nnc(-c2ccccc2)o1 [Example 33, 2,3-dichloro-4-((1R,2S)-2-hydroxy-1-(5-phenyl-1,3,4-oxadiazol-2-yl)propylamino)benzonitrile]",7.82
27,"COc1cccc(-c2nnc([C@H](Nc3ccc(C#N)c(Cl)c3C)[C@H](C)O)o2)c1 [Example 6, 2-chloro-4-((1R,2S)-2-hydroxy-1-(5-(3-methoxyphenyl)-1,3,4-oxadiazol-2-yl)propylamino)-3-methylbenzonitrile]",7.80
28,"Cc1c(N[C@@H](c2nnc(-c3cccc(O)c3)o2)[C@H](C)O)ccc(C#N)c1Cl [Example 7, 2-chloro-4-((1R,2S)-2-hydroxy-1-(5-(3-hydroxyphenyl)-1,3,4-oxadiazol-2-yl)propylamino)-3-methylbenzonitrile]",9.40
29,"Cc1c(N[C@@H](c2nnc(-c3ccc(Br)cc3)o2)[C@H](C)O)ccc(C#N)c1Cl [Example 56, 4-((1R,2S)-1-(5-(4-Bromophenyl)-1,3,4-oxadiazol-2-yl)-2-hydroxypropylamino)-2-chloro-3-methylbenzonitrile]",8.00
30,"Cc1c(N[C@@H](c2nnc(-c3ccc(I)cc3)o2)[C@H](C)O)ccc(C#N)c1Cl [Example 57, 2-Chloro-4-((1R,2S)-2-hydroxy-1-(5-(4-iodophenyl)-1,3,4-oxadiazol-2-yl)propylamino)-3-methylbenzonitrile]",7.96
